This is an account of results in patent publication US4766130A, “2-phenyl-imidazopyridin-ones and also useful as cardiotonics and anti-hypertensives” (Celamerck GmbH & Co. KG, priority 1983, dated 1988).

The test system of the assay is anesthetized cats. Kind of assay: Determination of the effect on blood pressure and the positive inotropic effect in anesthetized cats. In kind it is in vivo. To be noted: 2 mg/kg i.v.; for Increase in dp/dtmax in %: left ventricle contractility parameter; for Reduction in Blood Pressure in mm Hg: arterial pressure, aorta abdominalis. Here is the method:
Determination of the effect on blood pressure and the positive inotropic effect in anesthetized cats
The tests were carried out on cats which had been anesthetized with sodium pentobarbital (40 mg/kg i.p.). The animals breathed spontaneously. The arterial blood pressure was measured in the aorta abdominalis, using a Statham pressure transducer (P 23 Dc). To determine the positive inotropic effect, the pressure in the left ventricle was measured with a catheter-tip manometer (Millar PC-350 A). From this, the contractility parameter dp/dtmax was obtained, using an analogue differentiator. The test compounds were injected into a vena femoralis. The solvent used was physiological saline solution of Polydiol 200. Each compound was tested on at least 3 cats, dosage 2 mg/kg i.v.

Where a name gives a salt, the structure may show the parent alone.

On to `COc1cc(OS(C)(=O)=O)ccc1-c1nc2nc(OS(C)(=O)=O)ccc2[nH]1` (single isomer, unassigned) [B, 2-(2-methoxy-4-methanesulfonyloxy-phenyl)-5-methanesulfonyloxy-imidazo[4,5-b]pyridine], for which the “Duration of effective action (Half life)” value is 37 min and the “Increase in dp/dtmax in %” value is “+53%”. In addition, the “Reduction in Blood Pressure in mm Hg” value (value after the slash) is listed as -42 mm Hg. Moreover, the “Reduction in Blood Pressure in mm Hg” value (value before the slash) is on record as -50 mm Hg.
On the same counts, the results for `COc1cc(OS(C)(=O)=O)ccc1-c1nc2[nH]c(=O)ncc2[nH]1` [A, 8-(2-methoxy-4-methanesulfonyloxy-phenyl)-3(1)H-purin-2-one] are 42 min, “+48%”, -6 mm Hg and -8 mm Hg.
Take `COc1cc(OS(C)(=O)=O)ccc1C1=NC2=CCC(=O)NC2=N1` [C, 2-(2-methoxy-4-methanesulfonyloxy-phenyl)-4H-imidazo[4,5-b]pyridin-5-one]: the “Duration of effective action (Half life)” value was 31 min and the “Increase in dp/dtmax in %” value was “+158%”. For the same compound, the “Reduction in Blood Pressure in mm Hg” value (value after the slash) is reported as -54 mm Hg. The “Reduction in Blood Pressure in mm Hg” value (value before the slash) was -54 mm Hg.
As for `COc1cc(OS(C)(=O)=O)ccc1-c1nc2c(=O)[nH]ccc2[nH]1` [D, 2-(2-methoxy-4-methanesulfonyloxy-phenyl)-5H-imidazo[4,5-c]pyridin-4-one hydrochloride], the “Duration of effective action (Half life)” value turned out to be 31 min and the “Increase in dp/dtmax in %” value is reported as “+117%”. The “Reduction in Blood Pressure in mm Hg” value (value after the slash) was -42 mm Hg. Also, the “Reduction in Blood Pressure in mm Hg” value (value before the slash) was -42 mm Hg.
Consider `COc1cc(OS(C)(=O)=O)ccc1-c1nc2c(OS(C)(=O)=O)nccc2[nH]1` [E, 2-(2-methoxy-4-methanesulfonyloxy-phenyl)-4-methanesulfonyloxy-imidazo[4,5-c]pyridine], for which the “Duration of effective action (Half life)” value was 29 min and the “Increase in dp/dtmax in %” value was “+87%”. For the setting “value after the slash”, the “Reduction in Blood Pressure in mm Hg” value is recorded as -27 mm Hg. Further, the “Reduction in Blood Pressure in mm Hg” value (value before the slash) is -35 mm Hg.
As for `C#CCOc1ccc(-c2nc3c(=O)[nH]ccc3[nH]2)c(OC)c1` [F, 2-(2-methoxy-4-propargyloxy-phenyl)=5H-imidazo[4,5-c]pyridin-4-one], the “Duration of effective action (Half life)” value stood at 8 min and the “Increase in dp/dtmax in %” value was “+138%”. The “Reduction in Blood Pressure in mm Hg” value (value after the slash) was -47 mm Hg. Moreover, where the note is “value before the slash”, the “Reduction in Blood Pressure in mm Hg” value is -59 mm Hg.
For the compound `COc1cc(OS(C)(=O)=O)ccc1C1=NC2=NCC(=O)NC2=N1` [G, 2-(2-methoxy-4-methanesulfonyloxy-phenyl)-4H-imidazo[4,5-b]pyrazin-5-one], the “Duration of effective action (Half life)” value amounted to 5 min and the “Increase in dp/dtmax in %” value is given as “+100%”. Moreover, the “Reduction in Blood Pressure in mm Hg” value (value after the slash) was -27 mm Hg. Also, the “Reduction in Blood Pressure in mm Hg” value (value before the slash) is listed as -26 mm Hg.
